Assay results: patent US20100120662A1, “Glucose uptake modulator and method for treating diabetes or diabetic complications” (POSTECH Foundation, priority 2005, published 2010)

Tests used:
[1] = system: STZ-treated insulin deficient ICR male mice; test: Acute glucose lowering in streptozotocin (STZ)-treated insulin deficient ICR mice; format: in vivo, mouse; settings: 30 μmol/kg i.v. LPC
Method: (§1) Animals. Male ICR mice were purchased from hyochang science (ROK). C57BLKSJ-db/db mice were purchased from SLC (Japan). After intravenous injection of LPC, blood glucose was measured regularly with a portable glucose meter (Gluco-Dr, ROK) after tail snipping. For measurement of serum insulin, blood samples of mice were determined with the insulin-RIA Kit (LINCO, Missouri). Insulin deficient mice were induced in male ICR mice by two consecutive daily intraperitoneal injection of STZ (200 mg/kg) dissolved in sodium citrate (pH 5.5). On the third day after the last STZ injection, acute glucose lowering effect was analyzed after intravenous injection of vehicle, LPC or insulin as described above.
(§2) Eight-week-old male mice were intravenously injected with PBS, insulin, LPC, or LPE. Blood glucose was monitored after dosing (0 to 120 min). […] All animals had free access to water. Animal care was in accordance with institutional guidelines. All data are shown as means±SE (n=5-6).*P<0.05.

male ICR mice [2] = test: Serum insulin level in mice after single intravenous injection; format: in vivo, mouse
Method: as §1, §2

IRS1 and AKT = IRS1 and AKT phosphorylation in 3T3-L1 adipocytes (immunoblot); format: cell-based; settings: LPC treatment of 3T3-L1 adipocytes
Method: Immunoblotting. For preparing total cell lysates, 3T3-L1 adipocytes were washed with Ca^2+/Mg^2+-free PBS and then lysed in the lysis buffer (50 mM HEPES, pH 7.2, 150 mM NaCl, 50 mM NaF, 1 mM Na3VO4, 10% glycerol, 1% Triton X-100). The lysates were centrifuged at 15,000 rpm for 15 min at 4° C. The proteins were denatured by boiling in laemmli sample buffer for 5 min at 95° C., separated by SDS-PAGE. SDS-gel was transferred to nitrocellulose membrane using Hoefer wet transfer system. Membranes were blocked in TTBS (20 mM Tris-HCl, pH 7.6, 150 mM NaCl, 0.05% Tween 20) containing 5% skimmed milk powder for 30 min and then incubated with antibodies for 3 hours. After washing membranes several times with TTBS, the blots were incubated with HRP (Horseradish peroxidase)-conjugated goat anti-rabbit for 1 hour. The blots were washed with TTBS and developed by ECL.

3T3-L1 adipocytes [3] = test: [14C] 2-deoxy-D-glucose uptake in 3T3-L1 adipocytes; format: cell-based; settings: for stimulation of glucose uptake: equimolar 20 μM, 10 min
Method: Cell culture: 3T3-L1 fibroblasts were grown to confluence in DMEM containing a high glucose concentration, 10% fetal bovine serum, 50 U of penicillin per ml, and 50 ug of streptomycin per ml and maintained in a 5% CO2 humidified atmosphere at 37° C. 3T3-L1 was induced to differentiate into adipocytes, as described previously (van den Berghe, N., et al., Mol Cell Biol 14, pp. 2372-2377, 1994).
Glucose uptake measurement. For measuring glucose uptake in 3T3-L1 adipocytes, cells were grown in serum-free DMEM for 16 h and then incubated in the absence or presence of insulin or lysophospholipids for the indicated times at 37° C. Uptake was measured by adding 1 μCi of [^14C] 2-deoxy-D-glucose and 3 mM 2-deoxy-D-glucose. After 10 min, the assay was terminated by two quick washes with ice-cold PBS. Cells were lysed in 0:5 ml of lysis buffer containing 0.5 N NaOH and 0.1% SDS. The cell lysates were used for liquid scintillation counting and nonspecific uptake was assayed in the presence of 10 μM cytochalasin B (van den Berghe, N., et al., Mol Cell Biol 14, pp. 2372-2377, 1994).
FIG. 2A to 2D show the effects of LPC on the glucose uptake in 3T3-L1 adipocytes. […] After these treatments, [^14C] 2-deoxy-D-glucose uptake was measured for 10 min as described in Material Methods. […] FIGS. 2C and 2D show relative [^14C] 2-deoxy-D-glucose uptake in 3T3-L1 adipocytes incubated in the absence (control) or presence of equimolar concentrations (20 μM) of myristoyl lysophosphatidylcholine (14:0 LPC), palmytoyl lysophosphatidylcholine (16:0 LPC), stearoyl lysophosphatidylcholine (18:0 LPC), palmytoyl lysophsophatidylethanolamine (16:0 LPE), palmytoyl lyso-phosphatidylinositol (16:0 LPI), palmytoyl lysophosphatidylglycerol (16:0 LPG) for 10 min. Values are mean±SE of three independent experiments performed in triplicate. *P<0.05 vs. basal.

3T3-L1 adipocytes [4] = test: Cytotoxicity of LPC concentration used on 3T3-L1 adipocytes; format: cell-based; settings: 20 μM LPC
GLUT4 = GLUT4 translocation to the plasma membrane in 3T3-L1 adipocytes; format: cell-based; settings: 20 μM, 10 min, plasma membrane fraction
Method: Membrane fractionation of adipocytes. For obtaining total membranes (TM) from 3T3-L1 adipocytes, cells were collected into 10 ml of ice-cold HES buffer (250 mM sucrose, 1 mM EDTA, 1 mM phenylmethylsulfonyl fluoride [PMSF], 1 μM pepstatin, 1 μM aprotinin, 1 μM leupeptin, and 20 mM HEPES, pH 7.4) and subsequently homogenized with 30 strokes in a glass Dounce homogenizer at 4° C. After centrifugation at 1,000 g for 5 min at 4° C. to remove unbroken cells, the supernatant was then centrifugated at 212,000 g for 90 min at 4° C. to yield a pellet of total cellular membranes. To obtain the plasma membrane (PM) subcellular fraction from 3T3-L1 adipocytes, differential ultracentrifugation was used as described previously (Perrini, S., et al., Diabetes 53, pp. 41-52, 2004).
Immunoblotting. For preparing total cell lysates, 3T3-L1 adipocytes were washed with Ca^2+/Mg^2+-free PBS and then lysed in the lysis buffer (50 mM HEPES, pH 7.2, 150 mM NaCl, 50 mM NaF, 1 mM Na3VO4, 10% glycerol, 1% Triton X-100). The lysates were centrifuged at 15,000 rpm for 15 min at 4° C. […]
FIGS. 3A and 3B show LPC stimulates GLUT4 translocation in 3T3-L1 adipocytes. […] In each experiment, the relative increase or decrease in the integrated density value (IDV) of GLUT4 after stimulation with compounds is calculated. B) Quantitation of relative increases is depicted. […]

male ICR mice [5] = test: Acute blood glucose lowering in normal ICR mice after intravenous lysophospholipid; format: in vivo, mouse
Method: as §1, §2

C2C12 muscle cells = test: Glucose uptake in C2C12 muscle cells (LPC); format: cell-based; settings: data not shown
C57BLKSJ-db/db mice = test: Acute glucose lowering in insulin-resistant obese db/db mice; format: in vivo, mouse; settings: injection of LPC
Method: as §1, §2

[6] = 3T3-L1 adipocytes, 10 min incubation

CCCCCCCCCCCCCCCC(=O)OC[C@@H](O)COP(=O)([O-])OCC[N+](C)(C)C [LPC, palmytoyl lysophosphatidylcholine]
blood glucose concentrations in STZ-treated insulin deficient mice [1]: significantly reduced blood glucose concentrations | change in blood insulin levels (male ICR mice [2]): not due to changes in blood insulin levels | phosphorylation of IRS1 and AKT (IRS1 and AKT): had no effects on phosphorylation of IRS1 and AKT | incubation time at which glucose uptake was maximally increased (3T3-L1 adipocytes [3]; 20 μM, 0 to 20 min): 10 min | concentration of initial statistically significant effect on glucose uptake (3T3-L1 adipocytes [3]; [6]): 1 µM | concentration of maximal effect on glucose uptake (3T3-L1 adipocytes [3]; [6]): 20 µM | time and dose dependence of glucose uptake (3T3-L1 adipocytes [3]; 3T3-L1 adipocytes, various concentrations): time- and dose-dependent increase in glucose uptake | stimulation of glucose uptake (3T3-L1 adipocytes [3]): specifically stimulated glucose uptake | stimulation of glucose uptake (3T3-L1 adipocytes [3]; listed as palmytoyl LPC): stimulated glucose uptake | cytotoxicity (3T3-L1 adipocytes [4]): not cytotoxic | PM content of GLUT4 proteins (GLUT4): 180 % of basal | time to statistically significant fall in blood glucose (male ICR mice [5]; 15 or 30 μmol/kg i.v.): ≤ 30 min | blood glucose levels in ICR mice (male ICR mice [5]; 15 or 30 μmol/kg i.v., acute): statistically significant fall in blood glucose levels | blood glucose lowering, comparison of lysophospholipid species (male ICR mice [5]; doses equimolar to 30 μmol/kg i.v., ICR mice): significant effect on the blood glucose lowering | rate of glucose uptake in C2C12 muscle cells (C2C12 muscle cells): increased the rate of glucose uptake in a dose dependent manner | blood glucose in insulin-resistant obese db/db mice (C57BLKSJ-db/db mice): dropped to near normal levels
